Where two headings read alike, the source gives them in different places.
Assays:
Type in all cases: binding
[1] = molecular target: various enzymes (Homo sapiens, UniProt P49336); conditions: compound 1 uM
Procedure: (§1) Ambit profiling was conducted in accordance with the manufacturer's instructions.

[2] = molecular target: various enzymes (Homo sapiens, UniProt Q13523); conditions: compound 1 uM
Procedure: as §1

[3] = molecular target: various enzymes (Homo sapiens, UniProt Q04912); conditions: compound 1 uM
Procedure: as §1

[4] = molecular target: various enzymes (Homo sapiens, UniProt Q8TBX8); conditions: compound 1 uM
Chain of various enzymes (Homo sapiens, UniProt Q8TBX8) (Q8TBX8 whole entry): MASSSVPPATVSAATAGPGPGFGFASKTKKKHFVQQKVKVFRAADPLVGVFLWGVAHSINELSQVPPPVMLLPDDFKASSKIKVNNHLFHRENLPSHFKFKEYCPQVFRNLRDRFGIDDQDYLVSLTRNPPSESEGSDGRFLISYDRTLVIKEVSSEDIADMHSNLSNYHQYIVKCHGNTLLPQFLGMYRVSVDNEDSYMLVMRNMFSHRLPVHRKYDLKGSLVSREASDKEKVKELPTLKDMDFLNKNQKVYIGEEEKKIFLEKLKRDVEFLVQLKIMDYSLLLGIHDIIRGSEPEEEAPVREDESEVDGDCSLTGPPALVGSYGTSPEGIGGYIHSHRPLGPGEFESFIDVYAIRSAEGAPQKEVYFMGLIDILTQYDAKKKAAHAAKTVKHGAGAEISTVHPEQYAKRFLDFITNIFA
Procedure: as §1

[5] = molecular target: various enzymes (Homo sapiens, UniProt Q16816); conditions: compound 1 uM
Chain of various enzymes (Homo sapiens, UniProt Q16816) (Q16816 whole entry): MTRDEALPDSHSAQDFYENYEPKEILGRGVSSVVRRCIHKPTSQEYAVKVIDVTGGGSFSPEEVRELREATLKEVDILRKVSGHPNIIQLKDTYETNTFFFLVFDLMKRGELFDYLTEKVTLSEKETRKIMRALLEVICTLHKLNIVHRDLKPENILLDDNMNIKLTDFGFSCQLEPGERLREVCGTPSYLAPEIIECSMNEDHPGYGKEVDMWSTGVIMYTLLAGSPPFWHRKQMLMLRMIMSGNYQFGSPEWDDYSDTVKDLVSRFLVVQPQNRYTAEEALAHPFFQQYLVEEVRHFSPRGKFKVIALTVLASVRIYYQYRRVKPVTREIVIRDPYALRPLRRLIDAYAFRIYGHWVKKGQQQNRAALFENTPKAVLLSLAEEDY
Procedure: as §1

[6] = molecular target: various enzymes (Homo sapiens, UniProt P49841); conditions: compound 1 uM
Chain of various enzymes (Homo sapiens, UniProt P49841) (P49841 whole entry): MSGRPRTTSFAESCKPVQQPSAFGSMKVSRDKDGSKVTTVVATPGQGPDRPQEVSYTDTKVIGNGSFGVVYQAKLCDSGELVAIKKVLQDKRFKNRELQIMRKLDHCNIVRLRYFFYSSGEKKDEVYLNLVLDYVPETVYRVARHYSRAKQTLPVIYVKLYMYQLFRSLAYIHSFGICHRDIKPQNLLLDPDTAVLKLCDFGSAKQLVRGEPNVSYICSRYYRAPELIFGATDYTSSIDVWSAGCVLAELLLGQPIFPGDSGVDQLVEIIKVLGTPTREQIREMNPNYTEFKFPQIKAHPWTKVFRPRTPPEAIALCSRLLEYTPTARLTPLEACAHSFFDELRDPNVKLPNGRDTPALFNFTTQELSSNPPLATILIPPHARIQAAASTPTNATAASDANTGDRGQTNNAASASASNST
Procedure: as §1

[7] = molecular target: various enzymes (Homo sapiens, UniProt Q16513); conditions: compound 1 uM
Procedure: as §1

[8] = molecular target: various enzymes (Homo sapiens, UniProt Q16512); conditions: compound 1 uM
Chain of various enzymes (Homo sapiens, UniProt Q16512) (Q16512 whole entry): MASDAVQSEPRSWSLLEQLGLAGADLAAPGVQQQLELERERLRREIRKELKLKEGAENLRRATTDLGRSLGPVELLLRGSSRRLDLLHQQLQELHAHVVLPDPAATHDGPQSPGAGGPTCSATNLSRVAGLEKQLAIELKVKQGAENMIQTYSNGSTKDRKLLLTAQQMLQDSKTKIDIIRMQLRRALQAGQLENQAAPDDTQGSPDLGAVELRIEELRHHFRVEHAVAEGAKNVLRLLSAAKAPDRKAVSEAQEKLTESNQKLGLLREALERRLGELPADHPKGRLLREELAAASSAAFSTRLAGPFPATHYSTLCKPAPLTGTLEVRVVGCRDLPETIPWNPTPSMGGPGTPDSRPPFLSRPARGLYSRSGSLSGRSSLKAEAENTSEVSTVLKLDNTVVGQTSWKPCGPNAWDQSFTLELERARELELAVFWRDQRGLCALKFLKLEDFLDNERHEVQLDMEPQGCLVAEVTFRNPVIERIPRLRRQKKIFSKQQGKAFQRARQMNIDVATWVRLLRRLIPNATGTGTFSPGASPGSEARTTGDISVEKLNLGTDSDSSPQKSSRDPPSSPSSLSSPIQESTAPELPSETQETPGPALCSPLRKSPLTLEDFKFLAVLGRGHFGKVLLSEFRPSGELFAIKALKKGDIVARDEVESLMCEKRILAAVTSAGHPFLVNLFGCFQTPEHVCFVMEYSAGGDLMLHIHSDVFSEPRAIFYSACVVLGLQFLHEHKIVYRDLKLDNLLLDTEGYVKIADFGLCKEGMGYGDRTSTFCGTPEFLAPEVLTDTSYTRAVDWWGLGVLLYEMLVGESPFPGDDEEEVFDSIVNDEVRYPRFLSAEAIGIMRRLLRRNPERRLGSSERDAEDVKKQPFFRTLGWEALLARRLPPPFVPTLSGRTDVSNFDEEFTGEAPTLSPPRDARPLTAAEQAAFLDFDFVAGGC
Procedure: as §1

[9] = molecular target: various enzymes (Homo sapiens, UniProt Q13237); conditions: compound 1 uM
Chain of various enzymes (Homo sapiens, UniProt Q13237) (Q13237 whole entry): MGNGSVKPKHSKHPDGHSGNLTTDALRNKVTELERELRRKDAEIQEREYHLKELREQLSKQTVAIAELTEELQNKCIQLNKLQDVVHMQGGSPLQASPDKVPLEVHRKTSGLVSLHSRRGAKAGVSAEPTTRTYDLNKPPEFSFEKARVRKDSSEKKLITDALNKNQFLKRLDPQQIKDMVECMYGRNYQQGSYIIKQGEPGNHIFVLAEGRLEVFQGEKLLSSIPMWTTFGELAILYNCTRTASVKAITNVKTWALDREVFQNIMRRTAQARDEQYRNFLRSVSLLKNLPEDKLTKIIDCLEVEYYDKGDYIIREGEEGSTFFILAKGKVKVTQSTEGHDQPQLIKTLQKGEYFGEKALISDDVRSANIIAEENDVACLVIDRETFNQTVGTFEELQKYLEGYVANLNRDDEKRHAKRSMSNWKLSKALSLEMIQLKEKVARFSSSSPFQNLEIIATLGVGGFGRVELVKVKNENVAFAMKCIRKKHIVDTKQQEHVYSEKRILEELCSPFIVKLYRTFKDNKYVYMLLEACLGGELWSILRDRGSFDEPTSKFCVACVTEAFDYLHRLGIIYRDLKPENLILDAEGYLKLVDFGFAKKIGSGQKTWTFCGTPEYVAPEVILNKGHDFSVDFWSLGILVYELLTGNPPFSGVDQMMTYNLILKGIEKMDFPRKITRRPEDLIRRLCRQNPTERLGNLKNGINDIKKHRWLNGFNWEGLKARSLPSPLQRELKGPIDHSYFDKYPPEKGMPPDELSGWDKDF
Procedure: as §1

[10] = molecular target: various enzymes (Homo sapiens, UniProt P37173); conditions: compound 1 uM
Chain of various enzymes (Homo sapiens, UniProt P37173) (P37173 23-567): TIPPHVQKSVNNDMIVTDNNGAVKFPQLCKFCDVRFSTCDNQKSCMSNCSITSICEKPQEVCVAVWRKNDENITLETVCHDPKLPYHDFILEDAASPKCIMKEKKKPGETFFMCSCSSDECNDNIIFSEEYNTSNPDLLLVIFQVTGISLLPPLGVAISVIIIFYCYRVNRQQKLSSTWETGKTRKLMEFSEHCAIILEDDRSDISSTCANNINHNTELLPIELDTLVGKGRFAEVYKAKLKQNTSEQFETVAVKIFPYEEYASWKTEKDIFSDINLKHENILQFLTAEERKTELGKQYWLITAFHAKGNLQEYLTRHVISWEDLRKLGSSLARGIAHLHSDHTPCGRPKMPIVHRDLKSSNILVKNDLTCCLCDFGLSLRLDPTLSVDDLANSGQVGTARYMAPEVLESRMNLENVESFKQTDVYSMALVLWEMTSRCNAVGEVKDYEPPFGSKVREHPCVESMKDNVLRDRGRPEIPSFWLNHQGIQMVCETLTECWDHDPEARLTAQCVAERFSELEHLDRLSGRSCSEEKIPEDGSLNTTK
Procedure: as §1

[11] = molecular target: various enzymes (Homo sapiens, UniProt Q00532); conditions: compound 1 uM
Procedure: as §1

[12] = molecular target: various enzymes (Homo sapiens, UniProt P36896); conditions: compound 1 uM
Chain of various enzymes (Homo sapiens, UniProt P36896) (P36896 24-505): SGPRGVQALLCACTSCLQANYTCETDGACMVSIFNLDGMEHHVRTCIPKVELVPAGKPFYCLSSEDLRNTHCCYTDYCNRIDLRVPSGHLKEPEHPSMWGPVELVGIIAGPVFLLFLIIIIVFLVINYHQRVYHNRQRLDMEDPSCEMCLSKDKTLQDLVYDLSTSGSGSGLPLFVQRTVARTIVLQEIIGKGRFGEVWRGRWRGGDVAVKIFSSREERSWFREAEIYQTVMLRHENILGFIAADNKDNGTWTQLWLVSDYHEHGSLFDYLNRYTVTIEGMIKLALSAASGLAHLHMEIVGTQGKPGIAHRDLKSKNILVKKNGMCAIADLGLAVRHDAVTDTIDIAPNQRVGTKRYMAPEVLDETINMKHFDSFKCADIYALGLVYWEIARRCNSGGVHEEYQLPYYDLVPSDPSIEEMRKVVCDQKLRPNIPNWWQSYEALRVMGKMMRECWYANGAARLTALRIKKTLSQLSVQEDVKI
Procedure: as §1

[13] = molecular target: various enzymes (Homo sapiens, UniProt P00533, T790M)
Procedure: as §1

[14] = molecular target: T1, various enzymes (Homo sapiens, UniProt Q8IVH8); conditions: compound 1 uM
T1 sequence (Q8IVH8 1-894): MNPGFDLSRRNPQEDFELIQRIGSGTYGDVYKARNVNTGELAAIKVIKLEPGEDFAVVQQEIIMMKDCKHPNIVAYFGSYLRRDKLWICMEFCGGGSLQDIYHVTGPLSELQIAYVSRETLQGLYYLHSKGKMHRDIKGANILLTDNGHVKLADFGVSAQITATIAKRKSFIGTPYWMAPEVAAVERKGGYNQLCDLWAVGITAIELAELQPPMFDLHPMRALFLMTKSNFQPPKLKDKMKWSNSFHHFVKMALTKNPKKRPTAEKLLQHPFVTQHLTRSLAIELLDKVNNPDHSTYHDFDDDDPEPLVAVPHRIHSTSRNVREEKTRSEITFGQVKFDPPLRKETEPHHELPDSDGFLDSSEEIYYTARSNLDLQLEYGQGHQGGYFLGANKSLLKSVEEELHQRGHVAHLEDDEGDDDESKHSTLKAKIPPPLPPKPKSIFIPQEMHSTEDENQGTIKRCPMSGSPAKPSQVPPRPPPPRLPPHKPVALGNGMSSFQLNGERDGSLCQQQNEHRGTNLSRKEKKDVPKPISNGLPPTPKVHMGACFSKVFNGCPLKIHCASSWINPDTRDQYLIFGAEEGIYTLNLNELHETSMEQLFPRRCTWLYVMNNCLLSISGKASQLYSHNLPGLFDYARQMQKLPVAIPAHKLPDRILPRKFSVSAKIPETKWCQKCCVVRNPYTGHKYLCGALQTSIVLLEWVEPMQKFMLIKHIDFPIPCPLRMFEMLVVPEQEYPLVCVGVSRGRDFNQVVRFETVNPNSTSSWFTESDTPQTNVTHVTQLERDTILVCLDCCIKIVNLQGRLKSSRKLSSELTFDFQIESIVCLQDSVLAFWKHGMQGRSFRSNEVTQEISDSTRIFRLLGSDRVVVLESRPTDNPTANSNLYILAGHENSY
Procedure: as §1

[15] = molecular target: various enzymes (Homo sapiens, UniProt P00533, DEL747-752/P753S); parameters: other: EGFR(L747-S752del, P753S); 1 uM; other: compound 1 uM
Procedure: as §1

[16] = molecular target: various enzymes (Homo sapiens, UniProt P00533, DEL747-749/A750P); parameters: other: EGFR(L747-E749del, A750); 1 uM; other: EGFR(L747-E749del, A750P); other: compound 1 uM
Procedure: as §1

Chain of various enzymes (Homo sapiens, UniProt Q13523) (Q13523 whole entry): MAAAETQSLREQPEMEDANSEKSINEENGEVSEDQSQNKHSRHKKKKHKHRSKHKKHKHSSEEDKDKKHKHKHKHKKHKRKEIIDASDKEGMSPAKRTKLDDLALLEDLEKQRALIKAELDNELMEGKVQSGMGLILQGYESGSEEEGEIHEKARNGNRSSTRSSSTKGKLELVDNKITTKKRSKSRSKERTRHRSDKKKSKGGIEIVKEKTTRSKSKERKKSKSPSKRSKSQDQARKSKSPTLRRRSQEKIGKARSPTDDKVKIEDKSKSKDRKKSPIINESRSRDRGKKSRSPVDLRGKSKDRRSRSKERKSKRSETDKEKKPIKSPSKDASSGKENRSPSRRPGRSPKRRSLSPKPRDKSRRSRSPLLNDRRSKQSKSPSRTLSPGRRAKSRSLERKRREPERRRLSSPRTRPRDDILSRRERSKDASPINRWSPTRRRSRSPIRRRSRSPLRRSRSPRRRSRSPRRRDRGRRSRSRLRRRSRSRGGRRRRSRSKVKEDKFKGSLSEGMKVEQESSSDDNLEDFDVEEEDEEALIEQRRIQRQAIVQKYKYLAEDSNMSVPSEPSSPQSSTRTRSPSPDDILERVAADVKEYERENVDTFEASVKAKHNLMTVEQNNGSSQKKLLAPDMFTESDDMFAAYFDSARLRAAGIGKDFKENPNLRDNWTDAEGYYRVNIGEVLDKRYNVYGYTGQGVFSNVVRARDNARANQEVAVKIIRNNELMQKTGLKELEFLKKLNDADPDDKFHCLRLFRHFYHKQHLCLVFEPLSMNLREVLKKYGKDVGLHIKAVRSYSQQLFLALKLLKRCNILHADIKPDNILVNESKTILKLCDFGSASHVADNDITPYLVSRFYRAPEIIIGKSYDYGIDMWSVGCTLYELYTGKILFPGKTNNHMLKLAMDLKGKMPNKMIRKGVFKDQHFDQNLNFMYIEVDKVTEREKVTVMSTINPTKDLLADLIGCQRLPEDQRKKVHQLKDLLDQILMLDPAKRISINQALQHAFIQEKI

Compound | Ambit profiling: CDK8 [1] | Ambit profiling: PRP4 [2] | Ambit profiling: MST1R [3] | Ambit profiling: PIP5K2C [4] | Ambit profiling: PHKG1 [5] | Ambit profiling: GSK3B [6] | Ambit profiling: PKN2 [7] | Ambit profiling: PKN1 [8] | Ambit profiling: PRKG2 [9] | Ambit profiling: TGFBR2 [10] | Ambit profiling: CDKL1 [11] | Ambit profiling: ACVR1B [12] | Ambit profiling: EGFR(T790M) ([13]; compound 1 uM) | Ambit profiling: MAP4K3 [14] | Ambit profiling: EGFR(L747-S752del, P753S) ([15]; compound 1 uM) | Ambit profiling: EGFR(L747-E749del, A750P) ([16]; compound 1 uM) | Ambit profiling: EGFR(T790M) [13] | Ambit profiling: EGFR(L747-S752del, P753S) [15] | Ambit profiling: EGFR(L747-E749del, A750P) [16]
CC(C)N1Cc2nn(C)cc2-c2cnc3[nH]cc(c3c2)-c2cn(nc2C(F)(F)F)CCCC1=O [Compound 45, (Z)-5-isopropyl-31-methyl-13-(trifluoromethyl)-11H,21H,31H-5-aza-2(3,5)-pyrrolo[2,3-b]pyridina-1(4,1),3(4,3)-dipyrazolacyclononaphan-6-one] | 100 | 36 | 70 | 100 | 34 | 24 | 100 | 72 | 100 | 91 | 39 | 89 | 65 | 18 | 15 | 10 |  |  | 
COc1c2c(nn1C)CN(C(C)C)C(=O)CCCn1cc(c(C(F)(F)F)n1)-c1c[nH]c3ncc-2cc13 [Compound 50, (Z)-5-isopropyl-35-methoxy-31-methyl-13-(trifluoromethyl)-11H,21H,31H-5-aza-2(3,5)-pyrrolo[2,3-b]pyridina-1(4,1),3(4,3)-dipyrazolacyclononaphan-6-one] | 67 | 87 | 42 | 20 | 34 | 90 | 100 | 34 | 87 | 20 | 51 | 57 |  | 16 |  |  | 32 | 14 | 3.1
